Assay results reported in patent publication US11033535B2, “Oxadiazoles and thiadiazoles as TGF-β inhibitors” (Southern Research Institute, priority 2017, dated 2021).
Where two headings read alike, the source gives them in different places.

Experiment: Pharmacokinetic evaluation following a single oral and intravenous administration
Format: in vivo, CD1 mouse
Settings: for concentration at 1 h / concentration at 2 h / concentration at 4 h / concentration at 8 h / concentration at 24 h / AUC(0-inf) / AUC(0-t) / Cmax / MRT inf / half-life: CD1, mouse, plasma, po, 5 mg/kg; for concentration at 1 h / concentration at 2 h / concentration at 4 h / concentration at 8 h / concentration at 24 h: Table 5, PO Dose: 5 mg/kg
Description: A NMP stock solution was prepared by adding 1.136 mL of NMP to 5.68 mg of compound no. 42140 with vortexing and sonification, to obtain a solution with a concentration at 5 mg/mL of 42140:01. Next, to prepare an intravenous formulation, 0.100 mL of the 5 mg/mL stock solution was placed in a new vial. 0.100 mL of NMP and 0.400 mL of PEG400 were added with vortexing and sonification, followed by addition of 0.400 mL of saline with vortexing and sonification. […] 42140:01. Alternatively, to prepare an oral formulation, 0.200 mL of the 5 mg/mL stock solution was placed in a new vial. 0.400 mL of PEG400 was added with vortexing and sonification, followed by addition of 0.400 mL of saline with vortexing and sonifiction. […] 42140:01.
(§1) Briefly, the desired serial concentrations of working solutions were achieved by diluting a stock solution of the compound with 100% acetonitrile. 3 μL of working solutions (5, 10, 20, 50, 100, 500, 1000, 5000, 10000 ng/mL) were added to 30 μL of the blank CD1 mouse plasma to achieve calibration standards of 0.5-1000 ng/mL (0.5, 1, 2, 5, 10, 50, 100, 500, 1000 ng/mL) in a total volume of 33 μL. Five quality control samples at 1 ng/mL, 2 ng/mL, 5 ng/mL, 50 ng/mL and 800 ng/mL for plasma were prepared independently of those used for the calibration curves. These QC samples were prepared on the day of analysis in the same way as calibration standards.
Next, 33 μL standards, 33 μL QC samples, and 33 μL unknown samples (30 μL plasma with 3 μL blank solution) were added to 200 μL of acetonitrile containing IS mixture for precipitating protein, respectively. Then the samples were vortexed for 30 s. After centrifugation at 4 degree Celsius, 4000 rpm for 15 min, 3 μL of supernatant was injected into the LC/MS/MS system for quantitative analysis.
HPLC analysis was performed using 100% water with 0.1% formic acid (Solution A) and 100% acetonitrile with 0.1% formic acid (Solution B) with a flow rate of 0.6 mL/min.
A NMP stock solution was prepared by adding 2.092 mL of NMP to 10.46 mg of […] with vortexing and sonification, to obtain a solution with a concentration at 5 mg/mL of […]. Next, to prepare an intravenous formulation, 0.100 mL of the 5 mg/mL stock solution was placed in a new vial. 0.100 mL of NMP and 0.400 mL of PEG400 were added with vortexing and sonification, followed by addition of 0.400 mL of saline with vortexing and sonification. […] 42320:01. Alternatively, to prepare an oral formulation, 0.200 mL of the 5 mg/mL stock solution was placed in a new vial. 0.400 mL of PEG400 was added with vortexing and sonification, followed by addition of 0.400 mL of saline with vortexing and sonifiction. […] 42320:01.
as §1, with “50 ng/mL,” for “50 ng/mL”

[1] = Mouse 5, read-out: Concentration
[2] = Mouse 6, read-out: Concentration
[3] = mean, read-out: Concentration, Mean
[4] = Mouse 4, read-out: Concentration
[5] = Table 4, IV Dose: 1 mg/kg, Mouse 1
[6] = Table 4, IV Dose: 1 mg/kg, Mouse 2
[7] = Table 4, IV Dose: 1 mg/kg, Mouse 3
[8] = Table 4, IV Dose: 1 mg/kg, mean
[9] = Table 6, PO Dose: 5 mg/kg, Mouse 4
[10] = Table 6, PO Dose: 5 mg/kg, Mouse 5
[11] = Table 6, PO Dose: 5 mg/kg, Mouse 6
[12] = Table 6, PO Dose: 5 mg/kg, mean

For `CNCc1ccc(C[C@H](NC(C)=O)c2nnc(-c3cccc(OC(F)(F)F)c3)s2)cc1` [Compound 42140, N-(2-(4-((methylamino)methyl)phenyl)-1-(5-(3-(trifluoromethoxy)phenyl)-1,3,4-thiadiazol-2-yl)ethyl)acetamide], the concentration at 1 h [1] was 129 ng/mL, the concentration at 1 h [2] was 136 ng/mL and the concentration at 1 h [3] was 127 ng/mL. The concentration at 2 h [4] was 139 ng/mL, the concentration at 2 h [1] was 140 ng/mL and the concentration at 2 h [2] was 175 ng/mL. For the same compound, the concentration at 2 h [3] was 151 ng/mL, the concentration at 4 h [4] was 103 ng/mL and the concentration at 4 h [1] was 112 ng/mL. For the same compound, the concentration at 4 h [2] was 123 ng/mL, the concentration at 4 h [3] was 113 ng/mL and the concentration at 8 h [4] was 72.7 ng/mL. The concentration at 8 h [1] was 91.4 ng/mL, the concentration at 8 h [2] was 93.5 ng/mL and the concentration at 8 h [3] was 85.9 ng/mL. It also gave a concentration at 24 h [4] of 29.8 ng/mL, a concentration at 24 h [1] of 22.7 ng/mL and a concentration at 24 h [2] of 29.6 ng/mL. For the same compound, the concentration at 24 h [3] was 27.4 ng/mL, the AUC(0-inf) (Table 6, PO Dose: 5 mg/kg, Mouse 4, read-out: AUCInf) was 2110 ng·h/mL and the AUC(0-t) (Table 6, PO Dose: 5 mg/kg, Mouse 4, read-out: AUClast) was 1620 ng·h/mL. For the same compound, the Cmax (Table 6, PO Dose: 5 mg/kg, Mouse 4, read-out: Cmax) was 139 ng/mL, the MRT inf (Table 6, PO Dose: 5 mg/kg, Mouse 4, read-out: MRTInf—obs) was 15.8 h and the half-life (Table 6, PO Dose: 5 mg/kg, Mouse 4, read-out: T1/2 (converted)) was 11.5 h. For the same compound, the AUC(0-inf) (Table 6, PO Dose: 5 mg/kg, Mouse 5, read-out: AUCInf) was 2060 ng·h/mL, the AUC(0-t) (Table 6, PO Dose: 5 mg/kg, Mouse 5, read-out: AUClast) was 1790 ng·h/mL and the Cmax (Table 6, PO Dose: 5 mg/kg, Mouse 5, read-out: Cmax) was 140 ng/mL. It also gave an MRT inf (Table 6, PO Dose: 5 mg/kg, Mouse 5, read-out: MRTInf—obs) of 11.4 h, a half-life (Table 6, PO Dose: 5 mg/kg, Mouse 5, read-out: T1/2 (converted)) of 8.47 h and an AUC(0-inf) (Table 6, PO Dose: 5 mg/kg, Mouse 6, read-out: AUCInf) of 2380 ng·h/mL. It also gave an AUC(0-t) (Table 6, PO Dose: 5 mg/kg, Mouse 6, read-out: AUClast) of 1960 ng·h/mL, a Cmax (Table 6, PO Dose: 5 mg/kg, Mouse 6, read-out: Cmax) of 175 ng/mL and an MRT inf (Table 6, PO Dose: 5 mg/kg, Mouse 6, read-out: MRTInf—obs) of 13.1 h. The half-life (Table 6, PO Dose: 5 mg/kg, Mouse 6, read-out: T1/2 (converted)) was 9.71 h, the AUC(0-inf) (Table 6, PO Dose: 5 mg/kg, mean, read-out: AUCInf, Mean) was 2190 ng·h/mL and the AUC(0-t) (Table 6, PO Dose: 5 mg/kg, mean, read-out: AUClast, Mean) was 1790 ng·h/mL. For the same compound, the Cmax (Table 6, PO Dose: 5 mg/kg, mean, read-out: Cmax, Mean) was 151 ng/mL, the MRT inf (Table 6, PO Dose: 5 mg/kg, mean, read-out: MRTInf—obs, Mean) was 13.4 h and the half-life (Table 6, PO Dose: 5 mg/kg, mean, read-out: T1/2, Mean (converted)) was 9.9 h. The Tmax (CD1, plasma, Table 6, PO Dose: 5 mg/kg, Mouse 4) was 2 h, the AUClast/D [5] was 462 h·ng/mL per mg/kg and the “AUC—% Extrap—obs” value [5] was 17.0%. The Cl_obs [5] was 29.9 mL/min/kg, the AUClast/D [6] was 389 h·ng/mL per mg/kg and the “AUC—% Extrap—obs” value [6] was 19.8%. The Cl_obs [6] was 34.3 mL/min/kg, the AUClast/D [7] was 394 h·ng/mL per mg/kg and the “AUC—% Extrap—obs” value [7] was 11.6%. For the same compound, the Cl_obs [7] was 37.4 mL/min/kg, the AUClast/D, Mean [8] was 415 h·ng/mL per mg/kg and the “AUC—% Extrap—obs, Mean” value [8] was 16.1%. The “C0, Mean” value [8] was 101 ng/mL, the “Cl_obs, Mean” value [8] was 33.9 mL/min/kg and the AUClast/D [9] was 324 h·ng/mL per mg/kg. The “AUC—% Extrap—obs” value [9] was 23.4%, the F [9] was 78.0% and the AUClast/D [10] was 358 h·ng/mL per mg/kg. For the same compound, the “AUC—% Extrap—obs” value [10] was 13.4%, the F [10] was 83.3% and the AUClast/D [11] was 393 h·ng/mL per mg/kg. For the same compound, the “AUC—% Extrap—obs” value [11] was 17.4%, the F [11] was 95.9% and the AUClast/D, Mean [12] was 358 h·ng/mL per mg/kg. The “AUC—% Extrap—obs, Mean” value [12] was 18.1% and the “F, Mean” value [12] was 85.7%.
